# ChEMBL document CHEMBL1125524, “Adenosine A1 antagonists. 2. Structure-activity relationships on diuretic activities and protective effects against acute renal failure” (J Med Chem, 1992)
# What was measured:
# [1] = test system: Rattus norvegicus; assay: Serum creatinine concentration measured after intraperitoneal administration of 1 mg/kg of compound to rats(vehicle 4.91+/-0.10); format: functional
# [2] = test system: Rattus norvegicus; assay: Serum creatinine concentration measured after intraperitoneal administration of 10 mg/kg of compound to rats(vehicle 4.26+/-0.39); format: functional
# [3] = test system: Rattus norvegicus; assay: Effect on urinary excretion potassium and sodium after oral administration of 1.6 mg/kg to rats(potassium and sodium excretion in control rat is 0.158+/-0.034); format: functional, Urine
# [4] = test system: Rattus norvegicus; assay: Effect on urinary excretion potassium and sodium after oral administration of 3.1 mg/kg to rats(potassium and sodium excretion in control rat is 0.227+/-0.027); format: functional, Urine
# [5] = test system: Rattus norvegicus; assay: Percent inhibition of serum creatinine by the compound given as ratio of Cr value in treated to vehicle treated ones after intraperitoneal administration of 10 mg/kg of compound to rats(vehicle 4.26+/-0.39); format: functional; details: ip
# [6] = test system: Rattus norvegicus; assay: Ratio of urinary excretion value (urinary volume) in treated rats to that in control rats, at a peroral dose of 1.6 mg/Kg; format: functional, Urine
# [7] = test system: Rattus norvegicus; assay: Ratio of urinary excretion value (urinary volume) in treated rats to that in control rats, at a peroral dose of 25 mg/Kg; format: functional, Urine
# [8] = test system: Rattus norvegicus; assay: Ratio of urinary excretion value (urinary volume) in treated rats to that in control rats, at a peroral dose of 3.1 mg/Kg; format: functional, Urine
# [9] = test system: Rattus norvegicus; assay: Urea nitrogen concentration measured after intraperitoneal administration of 1 mg/kg of compound to rats(vehicle 154.5+/-7); format: functional
# [10] = test system: Rattus norvegicus; assay: Ratio of sodium ion/potassium ion concentration in treated rats to that in control rats, at a peroral dose of 3.1 mg/Kg; format: functional
# [11] = test system: Rattus norvegicus; assay: Ratio of sodium ion/potassium ion concentration in treated rats to that in control rats, at a peroral dose of 1.6 mg/Kg; format: functional
# [12] = test system: Rattus norvegicus; assay: Ratio of urinary excretion value (Na+ concentration) in treated rats to that in control rats, at a peroral dose of 1.6 mg/Kg; format: functional, Urine
# [13] = test system: Rattus norvegicus; assay: Ratio of urinary excretion value (Na+ concentration) in treated rats to that in control rats, at a peroral dose of 25 mg/Kg; format: functional, Urine
# [14] = test system: Rattus norvegicus; assay: Ratio of urinary excretion value (Na+ concentration) in treated rats to that in control rats, at a peroral dose of 3.1 mg/Kg; format: functional, Urine
# [15] = test system: Rattus norvegicus; assay: Effect on urinary excretion potassium and sodium after oral administration of 25 mg/kg to rats(potassium and sodium excretion in control rat is 0.079+/-0.007); format: functional, Urine
# [16] = test system: Rattus norvegicus; assay: Oral diuretic activity was measured after oral administration of 25 mg/kg to rats(control volume is 0.69+/-0.03); format: functional, Urine
# [17] = test system: Rattus norvegicus; assay: Urea nitrogen concentration measured after intraperitoneal administration of 10 mg/kg of compound to rats(vehicle 146.7+/-10.1); format: functional
# [18] = test system: Rattus norvegicus; assay: Oral diuretic activity was measured after oral administration of 1.6 mg/kg to rats(control volume is 1.12+/-0.33); format: functional, Urine
# [19] = test system: Rattus norvegicus; assay: Percent inhibition of serum creatinine by the compound given as ratio of Cr value in treated to vehicle treated ones after intraperitoneal administration of 1 mg/kg of compound to rats(vehicle 4.91+/-0.10); format: functional; details: ip
# [20] = test system: Rattus norvegicus; assay: Percent inhibition of Urea nitrogen by the compound given as ratio of UN value in treated to vehicle treated ones after intraperitoneal administration of 1 mg/kg of compound to rats(vehicle 154.5+/-7); format: functional; details: ip
# [21] = test system: Rattus norvegicus; assay: Percent inhibition of Urea nitrogen by the compound given as ratio of UN value in treated to vehicle treated ones after intraperitoneal administration of 10 mg/kg of compound to rats(vehicle 146.7+/-10.1); format: functional; details: ip
# [22] = test system: Rattus norvegicus; assay: Oral diuretic activity was measured after oral administration of 3.1 mg/kg to rats(control volume is 1.18+/-0.11); format: functional, Urine
# [23] = molecular target: T1, Adenosine receptor A1 (Cavia porcellus, UniProt P47745)
# T1 sequence (P47745 whole entry): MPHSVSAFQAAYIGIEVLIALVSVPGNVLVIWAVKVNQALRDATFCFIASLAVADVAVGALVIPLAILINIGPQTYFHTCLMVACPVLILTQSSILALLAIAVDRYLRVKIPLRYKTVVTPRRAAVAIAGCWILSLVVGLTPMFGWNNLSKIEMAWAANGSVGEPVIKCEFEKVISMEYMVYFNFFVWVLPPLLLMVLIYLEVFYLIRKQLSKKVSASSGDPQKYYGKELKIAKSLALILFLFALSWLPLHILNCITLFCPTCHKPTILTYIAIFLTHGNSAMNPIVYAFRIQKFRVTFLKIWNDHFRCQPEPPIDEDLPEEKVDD
# Description: Binding affinity against adenosine A1 receptor in guinea pig forebrain membranes using N6-[3H]cyclohexyladenosine as radioligand
# [24] = test system: Rattus norvegicus; assay: Serum creatinine concentration measured after intraperitoneal administration of 10 mg/kg of compound to rats(vehicle 2.74+/-0.27); format: functional
# [25] = test system: Rattus norvegicus; assay: Ratio of sodium ion/potassium ion concentration in treated rats to that in control rats, at a peroral dose of 25 mg/Kg; format: functional
# [26] = test system: Rattus norvegicus; assay: Effect on urinary excretion potassium and sodium after oral administration of 25 mg/kg to rats(potassium and sodium excretion in control rat is 0.095+/-0.009); format: functional, Urine
# [27] = test system: Rattus norvegicus; assay: Percent inhibition of serum creatinine by the compound given as ratio of Cr value in treated to vehicle treated ones after intraperitoneal administration of 10 mg/kg of compound to rats(vehicle 2.74+/-0.27); format: functional; details: ip
# [28] = test system: Rattus norvegicus; assay: Oral diuretic activity was measured after oral administration of 25 mg/kg to rats(control volume is 1.04+/-0.11); format: functional, Urine
# [29] = test system: Rattus norvegicus; assay: Urea nitrogen concentration measured after intraperitoneal administration of 10 mg/kg of compound to rats(vehicle 97.7+/-8.7); format: functional
# [30] = test system: Rattus norvegicus; assay: Percent inhibition of Urea nitrogen by the compound given as ratio of UN value in treated to vehicle treated ones after intraperitoneal administration of 10 mg/kg of compound to rats(vehicle 97.7+/-8.7); format: functional; details: ip
smiles,measurement,setting,value
CCCn1c(=O)c2nc(C34CC5CC(CC(C5)C3)C4)[nH]c2n(CCC)c1=O,Cr,[1],3.45 mg/dL
same,Cr,[2],1.91 mg/dL
same,Na,[3],0.227 m equiv 6hr-1 100g-1
same,Na,[4],0.299 m equiv 6hr-1 100g-1
same,inhibition in vivo at 10 mg/kg,[5],55%
same,T/C,[6],1.24
same,T/C,[7],2.29
same,T/C,[8],1.42
same,UN,[9],118.8 mg/dL
same,Na+/K+,[10],1.23
same,Na+/K+,[11],1.22
same,T/C,[12],1.44
same,T/C,[13],2.86
same,T/C,[14],1.32
same,Na,[15],0.226 m equiv 6hr-1 100g-1
same,Urine volume,[16],1.58 ml 6hr-1 100g-1
same,UN,[17],77.5 mg/dL
same,Urine volume,[18],1.39 ml 6hr-1 100g-1
same,inhibition in vivo at 1 mg/kg,[19],30%
same,inhibition in vivo at 1 mg/kg,[20],25%
same,inhibition in vivo at 10 mg/kg,[21],47%
same,Urine volume,[22],1.67 ml 6hr-1 100g-1
same,Ki,[23],13 nM
CCCn1c(=O)c2[nH]c(-c3ccc(OCC(=O)NCCN)cc3)nc2n(CCC)c1=O [XANTHINE AMINE CONGENER],Cr,[24],2.07 mg/dL
same,T/C,[7],1.05
same,Na+/K+,[25],1.24
same,T/C,[13],1.19
same,Na,[26],0.113 m equiv 6hr-1 100g-1
same,inhibition in vivo at 10 mg/kg,[27],24%
same,Urine volume,[28],1.05 ml 6hr-1 100g-1
same,UN,[29],70.1 mg/dL
same,inhibition in vivo at 10 mg/kg,[30],28%
